Laboratory results from patent publication US20130165368A1, “ANTIMICROBIAL COMPOUNDS” (priority 2010, published 2013).
In brackets after ≈: the same amount, converted by molar mass. Like-named read-outs stand apart in the source and are kept apart here.

What was measured:
Format in all cases: cell-based
Acinetobacter baumannii = assay: MIC agar dilution, micro-organism 10 (19606); details: Acinetobacter baumannii 19606
Description: (§1) Throughout the period of testing the microbial strains were subcultured and incubated for 18-20 hours at 37° C. on a weekly basis. Horse blood agar plates were used to sustain the micro-organisms both prior to and throughout testing. The alkoxylated alkanols listed in Table II below were obtained (these are obtainable from Sigma-Aldrich Company Ltd, Dorset, England), each having a GC purity of at least 97%.
(§2) Molar equivalent concentrations were used to allow comparison between compounds of differing molecular mass. Due to weighing difficulties, any compound in solid form was melted in a water bath prior to dilution. To make ten-times strength concentrations, which takes into account agar dilution, 0.0352 mmol of each compound was weighed into plastic universal bottles and 4 mL of sterile distilled water (SDW) was added. To produce a homogenous emulsion the universals were vortexed; once achieved the emulsions were serial diluted by adding 2 mL to 2 mL of SDW.
(§3) Myristyl alcohol and lauryl alcohol were re-weighed and dissolved in 25 μL of the polar solvent 1-methyl-2-pyrrolidone (M6762; Sigma-Aldrich) in sterile glass universals due to an inability to achieve an even suspension. To maintain an even emulsion in the presence of SDW 37.5 μL of the non-ionic detergent Tween 20 (P1379, Sigma-Aldrich) was also added. 3.9375 mL of SDW was added to these, to create a 4 mL volume; they were vortexed and diluted as before.
(§4) For every 100 mL of Isosensitest agar (IST) (CM0471; Oxoid, Basingstoke, England), 3.1 g of the IST powder was added to 100 mL SDW (as per manufacturer's instructions) and sterilised for 15 minutes at 121° C. Once sterilised, the molten agar was cooled to 50° C. in a water-bath. Subsequently 4.8 g of CCEY powder (BC2160; Bioconnections, Wetherby, England), also known as Brazier's medium, was added to 100 mL SDW for every 100 mL of agar needed. This was then sterilised for 15 minutes at 121° C. Once sterilised the molten agar was cooled to 50° C. in a water-bath and 4 mL of egg-yolk emulsion (S2073; TCS Biosciences Ltd, Buckingham, United Kingdom) and 1 mL of lysed defibrinated horse blood (HB035; TCS Biosciences Ltd, Buckingham, United Kingdom) were also added for every 100 mL needed. Horse blood lysis is achieved by dilution to half concentration with SDW; when fully lysed the mixture will turn dark red in colour.
(§5) 18 mL agar was added to each universal and then poured into sterile Petri dishes. This step creates a 1/10 dilution resulting in agar plates of the required strength. Control plates for each set of strains were created by adding 18 mL of agar to 2 mL of SDW.
(§6) Suspensions of each bacterial species were prepared with a density equal to that of a 0.5 McFarland standard using a densitometer. All suspensions were made using sterile distilled water and fresh 18-20 hour cultures. As a 0.5 McFarland standard contains 1.5×10^8 CFU/mL and the multipoint inoculators applies 1 μL spots of liquid, each bacterial suspension was diluted 1/15 (20 μL suspension to 280 μL sterile distilled water).
(§7) Bacterial suspensions were prepared from fresh 18-24 hour cultures as previously described. 1 μL of each strain was inoculated onto all 100 agar plates containing a different chemical concentration and the 2 control plates. This was done using a multipoint inoculator which inoculates 20 strains per plate. All plates were incubated for 22 hours at 37° C. in aerobic conditions.
(§8) Each plate was examined for bacterial growth after 22 and 48 hours, with each being incubated in between examinations. A positive result was recorded as growth of ≧10 colonies. A negative result was recorded as growth of <10 colonies as this is equivalent to 99.9% inhibition. The lowest concentration of chemical that inhibited growth was recorded as the MIC. The results are recorded in Table IV below, where the numbers are quoted in mmol/L.
(§9) Further experiments have also been conducted to determine the MIC of a number of other compositions as follows. […]

Steptococcus pyogenes = assay: MIC agar dilution, micro-organism 11 (8306); details: Steptococcus pyogenes 8306
Method in brief: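 Twofold dilutions of compound emulsions in water were set in Isosensitest agar with Brazier's CCEY medium, egg yolk and lysed horse blood. Spots of 1 µL from 0.5 McFarland suspensions diluted 1/15 were incubated aerobically at 37 °C and read at 22 and 48 h. MIC (mmol/L) was the lowest concentration giving <10 colonies.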

Yersinia enterocolitica = assay: MIC agar dilution, micro-organism 8 (11176); details: Yersinia enterocolitica 11176
Description: as §1, §2, §3, §4, §5, §6, §7, §8, §9

[1] = system: Enterococcus faecium (VRE) 255693 N. Tyneside; assay: MIC agar dilution, VRE strain 22
Description: as §2, §4, §5, §6, §7, §8
(§10) Given the positive performance of the ethoxylates of lauryl alcohol in reducing the MIC for a number of the micro-organisms tested, further MIC testing of Laureth-1 [C12E1] through to Laureth-8 [C12E8] was conducted on each of the following: • 10 strains of vancomycin-resistant enterococci (VRE)—listed in Table V below; and • 20 strains of methicillin-resistant Staphylococcus aureus (MRSA)—listed in Table VI.
(§11) The alkanol, alkanol derivatives, agar plates, and inocula were all prepared in the same way as described above.
(§12) The plates were examined in the same manner as described above and the results are recorded in Table VII below, where the numbers are quoted in mmol/L.

[2] = system: MRSA GER 131/98 (Sger Iidc); assay: MIC agar dilution, MRSA strain 35; details: Staphylococcus aureus
Description: as §2, §4, §5, §6, §7, §8, §10, §11, §12

[3] = system: vancomycin-resistant enterococci (VRE); assay: MIC agar dilution, summary over 10 VRE strains; details: Enterococcus; most, if not all, of the VRE samples
Description: as §10, §11, §12

MRSA FRA 95035 = assay: MIC agar dilution, MRSA strain 37; details: Staphylococcus aureus
Description: as §2, §4, §5, §6, §7, §8, §10, §11, §12

MRSA EMRSA 15 19972/98 = assay: MIC agar dilution, MRSA strain 39; details: Staphylococcus aureus
Description: as §2, §4, §5, §6, §7, §8, §10, §11, §12

MRSA BEL 97597 = assay: MIC agar dilution, MRSA strain 33; details: Staphylococcus aureus
Description: as §2, §4, §5, §6, §7, §8, §10, §11, §12

MRSA FIN 54518 (E7) = assay: MIC agar dilution, MRSA strain 31; details: Staphylococcus aureus
Description: as §2, §4, §5, §6, §7, §8, §10, §11, §12

[4] = system: methicillin-resistant Staphylococcus aureus (MRSA); assay: MIC agar dilution, summary over 20 MRSA strains; details: MRSA bacterial samples, 22 and 48 hour
Description: as §10, §11, §12

Structure (SMILES)	MIC (Steptococcus pyogenes; 22 h, 22 hrs, read-out: MIC) [µM]	MIC (Steptococcus pyogenes; 48 h, 48 hrs, read-out: MIC) [µM]	MIC ([1]; 22 hrs) [µM]	MIC ([1]; 48 hrs) [µM]	MIC ([2]; 22 hrs) [µM]	MIC ([2]; 48 hrs) [µM]	MIC [3] [µM]	MIC (MRSA FRA 95035; 22 hrs) [µM]	MIC (MRSA FRA 95035; 48 hrs) [µM]	MIC (MRSA EMRSA 15 19972/98; 22 hrs) [µM]	MIC (MRSA EMRSA 15 19972/98; 48 hrs) [µM]	MIC (MRSA BEL 97597; 22 hrs) [µM]	MIC (MRSA BEL 97597; 48 hrs) [µM]	MIC (MRSA FIN 54518 (E7); 22 hrs) [µM]	MIC (MRSA FIN 54518 (E7); 48 hrs) [µM]	MIC [4] [µM]	other results
CCCCCCCCCCCCCCCCO [C0, 1-Hexadecanol, reference compound]	220 (≈ 53.3 µg/mL)	440 (≈ 107 µg/mL)															MIC (Acinetobacter baumannii; 22 hrs, read-out: MIC): > 880 µM; MIC (Acinetobacter baumannii; 48 hrs, read-out: MIC): > 880 µM; MIC (Yersinia enterocolitica; 22 hrs, read-out: MIC): > 880 µM; MIC (Yersinia enterocolitica; 48 hrs, read-out: MIC): > 880 µM
CCCCCCCCCCCCCOCCOCCOCCOCCOCCOCCO [C13E6, polyoxyethylene (6) tridecyl alcohol]																	MIC (Acinetobacter baumannii; 22 hrs): >880 µM; MIC (Acinetobacter baumannii; 48 hrs): >880 µM; MIC (Steptococcus pyogenes; 22 hrs): 55 µM (≈ 25.6 µg/mL); MIC (Steptococcus pyogenes; 48 hrs): 55 µM (≈ 25.6 µg/mL); MIC (Yersinia enterocolitica; 22 hrs): >880 µM; MIC (Yersinia enterocolitica; 48 hrs): >880 µM
CCCCCCCCCCCCOCCO [L1, Ethylene Glycol Monododecyl Ether]	220 (≈ 50.7 µg/mL)	220 (≈ 50.7 µg/mL)	440 (≈ 101 µg/mL)	440 (≈ 101 µg/mL)	220 (≈ 50.7 µg/mL)	220 (≈ 50.7 µg/mL)	≤ 440	220 (≈ 50.7 µg/mL)	220 (≈ 50.7 µg/mL)	220 (≈ 50.7 µg/mL)	220 (≈ 50.7 µg/mL)	220 (≈ 50.7 µg/mL)	220 (≈ 50.7 µg/mL)	220 (≈ 50.7 µg/mL)	440 (≈ 101 µg/mL)		
CCCCCCCCCCCCOCCOCCO [L2, Diethylene Glycol Monododecyl Ether]	110 (≈ 30.2 µg/mL)	110 (≈ 30.2 µg/mL)	440 (≈ 121 µg/mL)	440 (≈ 121 µg/mL)	220 (≈ 60.4 µg/mL)	220 (≈ 60.4 µg/mL)	≤ 440	220 (≈ 60.4 µg/mL)	220 (≈ 60.4 µg/mL)	110 (≈ 30.2 µg/mL)	110 (≈ 30.2 µg/mL)	110 (≈ 30.2 µg/mL)	110 (≈ 30.2 µg/mL)	220 (≈ 60.4 µg/mL)	220 (≈ 60.4 µg/mL)		
CCCCCCCCCCCCOCCOCCOCCO [L3, Triethylene Glycol Monododecyl Ether]	≤ 50	≤ 50	880 (≈ 280 µg/mL)	> 880	110 (≈ 35 µg/mL)	110 (≈ 35 µg/mL)	≤ 440	55 (≈ 17.5 µg/mL)	55 (≈ 17.5 µg/mL)	110 (≈ 35 µg/mL)	110 (≈ 35 µg/mL)	55 (≈ 17.5 µg/mL)	55 (≈ 17.5 µg/mL)	220 (≈ 70.1 µg/mL)	440 (≈ 140 µg/mL)		
CCCCCCCCCCCCOCCOCCOCCOCCO [L4, Tetraethylene Glycol Monododecyl Ether]	≤ 50	≤ 50	440 (≈ 160 µg/mL)	880 (≈ 319 µg/mL)	110 (≈ 39.9 µg/mL)	110 (≈ 39.9 µg/mL)	≤ 440	55 (≈ 19.9 µg/mL)	55 (≈ 19.9 µg/mL)	55 (≈ 19.9 µg/mL)	55 (≈ 19.9 µg/mL)	55 (≈ 19.9 µg/mL)	55 (≈ 19.9 µg/mL)	220 (≈ 79.8 µg/mL)	440 (≈ 160 µg/mL)	~55 (≈ 19.9 µg/mL)	
CCCCCCCCCCCCOCCOCCOCCOCCOCCO [L5, Pentaethylene Glycol Monododecyl Ether]	≤ 50	≤ 50	220 (≈ 89.5 µg/mL)	220 (≈ 89.5 µg/mL)	110 (≈ 44.7 µg/mL)	110 (≈ 44.7 µg/mL)	≤ 440	110 (≈ 44.7 µg/mL)	110 (≈ 44.7 µg/mL)	110 (≈ 44.7 µg/mL)	110 (≈ 44.7 µg/mL)	110 (≈ 44.7 µg/mL)	110 (≈ 44.7 µg/mL)	440 (≈ 179 µg/mL)	440 (≈ 179 µg/mL)		
CCCCCCCCCCCCOCCOCCOCCOCCOCCOCCO [L6, Hexaethylene Glycol Monododecyl Ether]	≤ 50	≤ 50	440 (≈ 198 µg/mL)	> 880	110 (≈ 49.6 µg/mL)	110 (≈ 49.6 µg/mL)		220 (≈ 99.1 µg/mL)	440 (≈ 198 µg/mL)	110 (≈ 49.6 µg/mL)	110 (≈ 49.6 µg/mL)	110 (≈ 49.6 µg/mL)	110 (≈ 49.6 µg/mL)	> 440	> 440		
CCCCCCCCCCCCOCCOCCOCCOCCOCCOCCOCCO [L7, Heptaethylene Glycol Monododecyl Ether]			> 880	> 880	110 (≈ 54.4 µg/mL)	220 (≈ 109 µg/mL)		> 440	> 440	> 440	> 440	220 (≈ 109 µg/mL)	220 (≈ 109 µg/mL)	> 440	> 440	~440 (≈ 218 µg/mL)	MIC (Steptococcus pyogenes; 22 hrs, read-out: MIC): 110 µM (≈ 54.4 µg/mL); MIC (Steptococcus pyogenes; 48 hrs, read-out: MIC): 110 µM (≈ 54.4 µg/mL)
CCCCCCCCCCCCOCCOCCOCCOCCOCCOCCOCCOCCO [L8, Octaethylene Glycol Monododecyl Ether]	≤ 50	≤ 50	> 880	> 880	440 (≈ 237 µg/mL)	> 440		> 440	> 440	> 440	> 440	220 (≈ 119 µg/mL)	> 440	> 440	> 440	~440 (≈ 237 µg/mL)	
